Reference: patent publication US11958814B1, “3-(4-nitrophenyl)-5-((2-isopropyl-5-methylphenoxy)methyl)-1,2,4-oxadiazole as an anti-cancer and antimicrobial compound” (KING FAISAL UNIVERSITY, priority 2023, dated 2024)

What was measured:
[1] = test system: human osteosarcoma cells (MG-63); assay: Cytotoxicity by SRB assay; type: cell-based; conditions: MG-63 cells, 0.01 μM to 100 μM for 72 h
Excerpt: (§1) The anticancer activity of the described synthesized compounds against highly aggressive androgen-independent metastatic human prostate cancer cells (PC3) and osteosarcoma (MG-63) cells. The human prostate cancer cells (PC3) and human osteosarcoma cells (MG-63) were obtained from Nawah Scientific Inc. (Mokatam, Cairo, Egypt) and cultured in DMEM (Dulbecco's modified eagle's medium), Gibco, USA, supplemented with fetal bovine serum (FBS) at a concentration of 10% and 100 U/mL of penicillin and streptomycin (PS). The Cells were incubated at 37° C. in a humidified environment that contained 5% CO2.
(§2) Cells were seeded in 96-well plates as aliquots of 100 μL cell suspension and incubated in a complete media for 24 h. afterward, cells were treated with 3-(4-nitrophenyl)-5-((2-isopropyl-5-methylphenoxy)methyl)-1,2,4-oxadiazole at diverse concentrations ranging from 0.01 μM to 100 μM for 72 h. Then, cells were fixed at 4° C. for one hour with 150 μL of 10% trichloroacetic acid (TCA). […] Then, 150 μL of Tris pH 10.5 (10 mM) was added, and the absorbance was measured at 540 nm using a BMG LABTECH®-FLUOstar Omega microplate reader (Ortenberg, Germany). Half maximal inhibitory concentrations (IC50) values were calculated for each experiment using GraphPad Prism 6 software. […]
(§3) The inhibition was calculated using the following equation: Inhibition %=100−Average Viability

[2] = test system: human prostate cancer cells (PC3); assay: Cytotoxicity by SRB assay; type: cell-based; conditions: 0.01 μM to 100 μM for 72 h
Excerpt: as §1, §2, §3

[3] = test system: Chrysosporium keratinophilum; assay: Agar plate disc-diffusion, inhibition zone (antifungal); type: cell-based; conditions: 72 h for fungi
Experimental: (§4) The agar plate disc-diffusion method was applied. Sterilized filter papers (6 mm in diameter) were wetted with 10 μL of a solution of 3-(4-nitrophenyl)-5-((2-isopropyl-5-methylphenoxy)methyl)-1,2,4-oxadiazole (3) to be tested, containing 10 mg/mL in DMSO, and the discs were allowed to air dry. The discs were then placed onto the surface of agar plates (nutrient agar for bacteria and Sabouraud's dextrose agar for fungi) seeded with the test organism. Each plate contained 15 mL of the agar medium, previously seeded with 0.2 mL of the broth culture of each organism pregrown for 18 hours. The plates were incubated at 37° C. for 48 h, and 72 h for fungi. The inhibition zones were measured in mm. Discs impregnated with DMSO were used as a control, and its inhibition zone was subtracted from the tested compound actual inhibition zone.

Aspergillus flavus = assay: as above; type: cell-based; conditions: 72 h for fungi
Experimental: as §4

Pseudomonas aeruginosa = assay: Agar plate disc-diffusion, inhibition zone; type: cell-based; conditions: 37° C., 48 h
Experimental: as §4

Staphylococcus aureus = assay: Agar plate disc-diffusion, inhibition zone; type: cell-based; conditions: 37° C., 48 h
Experimental: as §4

Escherichia coli = assay: Agar plate disc-diffusion, inhibition zone; type: cell-based; conditions: 37° C., 48 h
Experimental: as §4

Bacillus cereus = assay: Agar plate disc-diffusion, inhibition zone; type: cell-based; conditions: 37° C., 48 h
Experimental: as §4

different microbes = assay: Antimicrobial screening by agar plate disc-diffusion, overall statement; type: cell-based; conditions: against different microbes (bacteria and fungi of Tables 1 and 2)
Experimental: as §4

[4] = A = concentration of comp. = 10,000 μL
[5] = B = concentration of comp. = 30,000 μL
[6] = C = concentration of comp. = 50,000 μL
[7] = A = concentration of comp. = 10 mg/mL
[8] = A = concentration of comp. = 10,000 μg/mL

For Cc1ccc(C(C)C)c(OCc2nc(-c3ccc([N+](=O)[O-])cc3)no2)c1 [3-(4-nitrophenyl)-5-((2-isopropyl-5-methylphenoxy)methyl)-1,2,4-oxadiazole], the “antiproliferative activity (in words)” value [1] was “excellent antiproliferative activities” and the “antiproliferative activity (in words)” value [2] was “excellent antiproliferative activities”.

In the case of O=C(O)c1cn(C2CC2)c2cc(N3CCNCC3)c(F)cc2c1=O [Cip., ciprofloxacin, reference compound], the inhibition zone [3, 4] is reported as 29 mm, the inhibition zone [3, 5] is reported as 30 mm and the inhibition zone [3, 6] is reported as 53 mm. It also gave an inhibition zone (Aspergillus flavus; [4]) of 29 mm, an inhibition zone (Aspergillus flavus; [5]) of 30 mm and an inhibition zone (Aspergillus flavus; [6]) of 42 mm. The inhibition zone (Pseudomonas aeruginosa; [4]) was 29 mm, the inhibition zone (Pseudomonas aeruginosa; [5]) was 30 mm and the inhibition zone (Pseudomonas aeruginosa; [6]) was 53 mm. The inhibition zone (Staphylococcus aureus; [7]) was 43 mm, the inhibition zone (Staphylococcus aureus; [5]) was 44 mm and the inhibition zone (Staphylococcus aureus; [6]) was 53 mm. For the same compound, the inhibition zone (Escherichia coli; [4]) was 30 mm, the inhibition zone (Escherichia coli; [5]) was 39 mm and the inhibition zone (Escherichia coli; [6]) was 60 mm. The inhibition zone (Bacillus cereus; [8]) was 29 mm, the inhibition zone (Bacillus cereus; [5]) was 30 mm and the inhibition zone (Bacillus cereus; [6]) was 42 mm.

For Cc1ccc(C(C)C)c(OCc2nc(-c3ccc([N+](=O)[O-])cc3)no2)c1 [Compound 3, 3-(4-nitrophenyl)-5-((2-isopropyl-5-methylphenoxy)methyl)-1,2,4-oxadiazole], the “antimicrobial activity (in words)” value (different microbes) was “excellent antimicrobial activities”, the inhibition zone [3, 4] was 28 mm and the inhibition zone [3, 5] was 30 mm. The inhibition zone [3, 6] was 49 mm, the inhibition zone (Aspergillus flavus; [4]) was 20 mm and the inhibition zone (Aspergillus flavus; [5]) was 23 mm. The inhibition zone (Aspergillus flavus; [6]) was 36 mm, the melting point was 172 to 173 °C and the inhibition zone (Pseudomonas aeruginosa; [4]) was 26 mm. For the same compound, the inhibition zone (Pseudomonas aeruginosa; [5]) was 27 mm, the inhibition zone (Pseudomonas aeruginosa; [6]) was 43 mm and the inhibition zone (Staphylococcus aureus; [7]) was 18 mm. The inhibition zone (Staphylococcus aureus; [5]) was 23 mm, the inhibition zone (Staphylococcus aureus; [6]) was 35 mm and the inhibition zone (Escherichia coli; [4]) was 27 mm. It also gave an inhibition zone (Escherichia coli; [5]) of 36 mm, an inhibition zone (Escherichia coli; [6]) of 50 mm and an inhibition zone (Bacillus cereus; [8]) of 22 mm. The inhibition zone (Bacillus cereus; [5]) was 25 mm and the inhibition zone (Bacillus cereus; [6]) was 38 mm.
